# Patent US20230278972A1, “SUBSTITUTED HALOALKYL SULFONANILIDE HERBICIDES” (FMC Corporation, priority 2020, published 2023)
# Tests used:
# Assay type in all cases: in vivo
# [1] = test system: barnyardgrass (Echinochloa crus-galli); assay: Test A preemergence, barnyardgrass; conditions: Preemergence; for Barnyardgrass plant response rating: 125 g ai/ha, visual injury on 0 to 100 scale (0 no effect, 100 complete control), approximately 10 days; for Plant response rating, Barnyardgrass: 0 to 100 scale (0 no effect, 100 complete control)
# In short: (§1)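 Greenhouse pot test in a loam–sand blend; compounds delivered in a non-phytotoxic solvent carrying a surfactant, applied either as a directed spray to soil at seeding or over seedlings 2 to 10 cm high with one to two leaves.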
# [2] = test system: kochia (Bassia scoparia); assay: Test A preemergence, kochia; conditions: Preemergence; for Kochia plant response rating: 125 g ai/ha, visual injury on 0 to 100 scale (0 no effect, 100 complete control), approximately 10 days; for Plant response rating, Kochia: 0 to 100 scale (0 no effect, 100 complete control)
# In short: as §1
# [3] = test system: ragweed (common ragweed, Ambrosia artemisiifolia); assay: Test A preemergence, ragweed; conditions: Preemergence
# In short: as §1
# [4] = test system: Ryegrass, Italian (Italian ryegrass, Lolium multiflorum); assay: Test A preemergence, Ryegrass, Italian; conditions: Preemergence; for Ryegrass, Italian plant response rating: 125 g ai/ha, visual injury on 0 to 100 scale (0 no effect, 100 complete control), approximately 10 days; for Plant response rating, Ryegrass, Italian: 0 to 100 scale (0 no effect, 100 complete control)
# In short: as §1
# [5] = test system: Foxtail, Giant (giant foxtail, Setaria faberi); assay: Test A preemergence, Foxtail, Giant; conditions: Preemergence; for Foxtail, Giant plant response rating: 125 g ai/ha, visual injury on 0 to 100 scale (0 no effect, 100 complete control), approximately 10 days; for Plant response rating, Foxtail, Giant: 0 to 100 scale (0 no effect, 100 complete control)
# In short: as §1
# [6] = test system: pigweed (Amaranthus retroflexus); assay: Test A preemergence, pigweed; conditions: for Pigweed plant response rating: 125 g ai/ha, visual injury on 0 to 100 scale (0 no effect, 100 complete control), approximately 10 days; for Plant response rating, Pigweed: 0 to 100 scale (0 no effect, 100 complete control)
# In short: (§2)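 Whole-plant herbicidal screen in pots of loam blended with sand. Sprays used a surfactant-containing, non-phytotoxic solvent vehicle. Timing was preemergence soil-directed at planting or postemergence at the one- to two-leaf stage (2–10 cm).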
# [7] = test system: barnyardgrass (Echinochloa crus-galli); assay: Test A postemergence, barnyardgrass; conditions: Postemergence, 0 to 100 scale (0 no effect, 100 complete control)
# In short: as §2
# [8] = test system: kochia (Bassia scoparia); assay: Test A postemergence, kochia; conditions: Postemergence, 0 to 100 scale (0 no effect, 100 complete control)
# In short: as §1
# [9] = test system: ragweed (common ragweed, Ambrosia artemisiifolia); assay: Test A postemergence, ragweed; conditions: Postemergence, 0 to 100 scale (0 no effect, 100 complete control)
# In short: as §1
# [10] = test system: Ryegrass, Italian (Italian ryegrass, Lolium multiflorum); assay: Test A postemergence, Ryegrass, Italian; conditions: Postemergence, 0 to 100 scale (0 no effect, 100 complete control)
# In short: as §1
# [11] = test system: Foxtail, Giant (giant foxtail, Setaria faberi); assay: Test A postemergence, Foxtail, Giant; conditions: Postemergence, 0 to 100 scale (0 no effect, 100 complete control)
# In short: as §1
# [12] = test system: pigweed (Amaranthus retroflexus); assay: Test A postemergence, pigweed; conditions: Postemergence, 0 to 100 scale (0 no effect, 100 complete control)
# In short: as §1
# [13] = test system: wheat (Triticum aestivum); assay: Test A postemergence, wheat; conditions: Postemergence, 0 to 100 scale (0 no effect, 100 complete control)
# In short: as §2
# [14] = test system: corn (Zea mays); assay: Test A postemergence, corn; conditions: Postemergence, 0 to 100 scale (0 no effect, 100 complete control)
# In short: as §1
# [15] = test system: blackgrass (Alopecurus myosuroides); assay: Test A postemergence, blackgrass; conditions: Postemergence, 0 to 100 scale (0 no effect, 100 complete control)
# In short: as §1
# [16] = test system: galium (catchweed bedstraw, Galium aparine); assay: Test A postemergence, galium; conditions: Postemergence, 0 to 100 scale (0 no effect, 100 complete control)
# In short: as §2
# [17] = 125 g ai/ha, visual injury approx. 10 days
# [18] = 500 g ai/ha, visual injury vs untreated controls after approx. 10 days
# [19] = 500 g ai/ha, visual injury, approx. 10 days
# [20] = 1000 g ai/ha, visual injury, approx. 10 days
SMILES,Barnyardgrass plant response rating [1],"Plant response rating, Barnyardgrass ([1]; 500 g ai/ha)",Kochia plant response rating [2],"Plant response rating, Kochia ([2]; 500 g ai/ha)","Ryegrass, Italian plant response rating [4]","Plant response rating, Ryegrass, Italian ([4]; 500 g ai/ha)","Foxtail, Giant plant response rating [5]","Plant response rating, Foxtail, Giant ([5]; 500 g ai/ha)",Pigweed plant response rating [6],"Plant response rating, Pigweed ([6]; 500 g ai/ha)","Plant response rating, Barnyardgrass [7, 17]","Plant response rating, Kochia [8, 17]","Plant response rating, Ragweed [9, 17]","Plant response rating, Ryegrass, Italian [10, 17]","Plant response rating, Foxtail, Giant [11, 17]","Plant response rating, Pigweed [12, 17]","Plant response rating, Wheat [13, 17]","Plant response rating, Corn [14, 17]","Plant response rating, Blackgrass [15, 17]","Plant response rating, Galium [16, 17]",other results
Cc1cc(C)c(C2=NOC3CCCCC23)cc1NS(=O)(=O)C(F)(F)F (racemic) [Compound 125],100,100,90,100,100,100,100,100,100,100,80,70,60,0,20,60,30,0,10,90,"Ragweed plant response rating ([3]; 125 g ai/ha, visual injury on 0 to 100 scale (0 no effect, 100 complete control), approximately 10 days): 60; Plant response rating, Ragweed ([3]; 500 g ai/ha, 0 to 100 scale (0 no effect, 100 complete control)): 80; Barnyardgrass plant response rating [7, 18]: 90; Kochia plant response rating [8, 18]: 80; Ragweed plant response rating [9, 18]: 80; Ryegrass, Italian plant response rating [10, 18]: 70; Foxtail, Giant plant response rating [11, 18]: 50; Pigweed plant response rating [12, 18]: 90; Wheat plant response rating [13, 18]: 70; Corn plant response rating [14, 18]: 60; Blackgrass plant response rating [15, 18]: 60; Galium plant response rating [16, 18]: 90"
Cc1cc(Cl)c(NS(=O)(=O)C(F)(F)F)cc1C(=O)N(C)C [Compound 23],90,100,80,80,40,100,70,100,80,100,50,40,80,30,50,70,50,20,30,80,"Plant response rating, Barnyardgrass [7, 19]: 70; Plant response rating, Kochia [8, 19]: 70; Plant response rating, Ragweed [9, 19]: 80; Plant response rating, Ryegrass, Italian [10, 19]: 80; Plant response rating, Foxtail, Giant [11, 19]: 90; Plant response rating, Pigweed [12, 19]: 80; Plant response rating, Wheat [13, 19]: 70; Plant response rating, Corn [14, 19]: 70; Plant response rating, Blackgrass [15, 19]: 30; Plant response rating, Galium [16, 19]: 90"
Cc1ccc(C(=O)N2CCC(C(F)(F)F)CC2)cc1NS(=O)(=O)C(F)(F)F [Compound 263],,,,,,,,,,,,,,,,,,,,,"Plant response rating, Barnyardgrass ([1]; 1000 g ai/ha): 30; Plant response rating, Kochia ([2]; 1000 g ai/ha): 20; Plant response rating, Ryegrass, Italian ([4]; 1000 g ai/ha): 50; Plant response rating, Foxtail, Giant ([5]; 1000 g ai/ha): 70; Plant response rating, Pigweed ([6]; 1000 g ai/ha): 60; Plant response rating, Barnyardgrass [7, 20]: 30; Plant response rating, Kochia [8, 20]: 10; Plant response rating, Ragweed [9, 20]: 0; Plant response rating, Ryegrass, Italian [10, 20]: 80; Plant response rating, Foxtail, Giant [11, 20]: 0; Plant response rating, Pigweed [12, 20]: 0; Plant response rating, Wheat [13, 20]: 0; Plant response rating, Corn [14, 20]: 20; Plant response rating, Blackgrass [15, 20]: 20; Plant response rating, Galium [16, 20]: 60"
